The molecules below were run on fungus tyrosinase (assay: in vitro inhibition test of the activity of tyrosinase (dopachrome formation, 475 nm)). Settings: inhibitor at 50 molar percent relative to tyrosine; 0.1M phosphate buffer pH 6.5; 25° C.; optical density at 475 nm at plateau.
Assay type: biochemical
Text: Certain ones of the benzofuran derivatives have been comparatively studied with respect to hydroquinone, at molar equivalent amounts, in the in vitro inhibition test of the activity of tyrosinase.
According to this test the amount of dopachrome formed during the course of the reaction chain for the transformation of tyrosine into melanins is followed by visible spectrometry at 475 nm. These reactions are catalyzed, in vitro, by fungus tyrosinase, in the presence of a reducing co-substrate(for example, L-dopa in a small amount) to initiate the hydroxylation reaction of L-tyrosine into L-dopa, which is then catalytically oxidized into dopaquinone, then into dopachrome, produced intermediate before the non-enzymatic oxidation reactions terminating in the formation of melanins.
The concentration of dopachrome formed during the course of time in the presence and in the absence of the inhibitor is then measured.
The concentrations of inhibitors are fixed at 50 molar percent relative to the tyrosine concentration in the reaction medium.
The inhibition effect is expressed by the reduction of the maximum amount of dopachrome formed (optical density value at 475 nm read at the plateau of the curve) relative to the amount obtained in the absence of inhibitor.
A--0.1M phosphate buffer pH=6.5 (TWEEN 20 at 1%)
B--L-tyrosine mother solution at 2×10^-3 M in A
C--L-dopa mother solution at 10^-4 M in A
D--Fungus tyrosinase mother solution at 2,400 units/ml in A
E--Inhibitor mother solution at 10^-2 M in A (solutions C and D are prepared the same day).
Homogenize and equilibrate at 25° C.
rapidly mix and observe the kinetics by the measurement of the absorbance at 475 nm as a function of time.

| Structure (SMILES) | % inhibitor (reduction of the maximum amount of dopachrome formed relative to the amount obtained in the absence of inhibitor) [%] |
| --- | --- |
| Oc1ccc2ccoc2c1 | 54 |
| Oc1ccc(O)cc1 [hydroquinone, reference compound] | 33 |
| Oc1ccc2c(c1)OCC2 | 66 |
| Oc1ccc2occc2c1 | 56 |

Source: patent publication US5730962A, “Depigmenting cosmetic or dermatologic composition containing a benzofuran derivative and its use in depigmentating skin” (L'Oreal, priority 1991, dated 1998)
